Experiments:
Xenopus laevis = Xenopus laevis system; cited from earlier work
[1] = system: acute lymphoblastic leukemia; test: Example 1: patient with relapsed acute lymphoblastic leukemia; type: in vivo, human
Procedure: A person was diagnosed with acute lymphoblastic leukemia. […] 15 received a chemotherapy induction regimen of eight cycles of Hyper-CVAD which consists of the following: Cyclophosphamide 300 mg/mn^2 intravenously (IV) over 3 hours every 12 hours for six doses on days 1 through 3, with mesna at the same total dose as cyclophosphamide but given bycontinuous infusion starting with cyclophosphamide and ending 6 hours after the last dose; vincristine 2 mg IV days 4 and 11; doxorubicin 50 mg/^2 IV day 4; and dexamethasone 40 mg daily on days 1 through 4 and 11 through 14.
In addition, high dose methotrexate-cytarabine (ara-c) was used as follows: MTX (methotrexate) 200 mg/m^2 IV over 2 hours followed by 800 mg/m^2 IV over 24 hours on day 1; citrovorum factor rescue starting 24 hours after completion of MTX infusion at 15 mg every 6 hours x 8, and increased to 50 mg every 6 hours if MTX levels were more 25 than 20 ,upmol/L at the end of the infuision, more than 1 μμmol/L 24 hours later, or more than 0.1 μμmol/L48 hours after the end of MTX infusion, until levels were lower than 0.1μμM; ara-C (cytarabine) […] over 2 hours every 12 hours ×4 on days 2 and 3; and methylprednisolone 50 mg IV twice daily on days 1 through 3.
About a year later, they relapsed with the presence of cancer cells in blood and bone marrow. Thereafter, they underwent a salvage chemotherapy regimen of FLAG (fludarabine, ara-c and G-CSF) with the following doses: fludarabine 30 mg/m^2lday for 5 days; ara-C (cytarabine) 2 g/m^2/day for 5 days (FLAG); and G-CSF (neupogen or granulocyte colony stimulating factor) 400 micrograms/m^2/day. […] They were then given the same salvage regimen plus a daily oral dose of 4-oxo-retinol at 150 mg per day for 28 days. […] This remission lasted for one month before relapse.
The same salvage regimen was repeated with oral administration of4-oxo-retinol (75 mg per day for 18 days) in addition to a daily dose of calcitriol (50 mcg per day concomitant with the administration of 4-oxo-retinol).

[2] = FLAG salvage regimen plus oral 150 mg per day for 28 days

CC(C=CC1=C(C)C(=O)CCC1(C)C)=CC=CC(C)=CCO [4-oxo-retinol]
ED50, teratogenicity (Xenopus laevis): 300 to 400 nM | response ([1]; FLAG salvage regimen plus oral 75 mg per day for 18 days and calcitriol 50 mcg per day): complete remission | duration of remission before relapse [1, 2]: one | lymph nodes [1, 2]: shrinkage of the lumph nodes to normal size | response (blood and bone marrow) [1, 2]: complete remission

Source: US20060281813A1, “Methods of treating hyperproliferative cell disorders” (priority 2003, published 2006)
